Reference: US20080317702A1, “METHOD FOR TREATING MICROORGANISMS AND/OR INFECTIOUS AGENTS” (priority 2007, published 2008)
Values joined by “and” are separate entries in the source; they are usually repeats but may differ in a detail not shown here. Identical values can stand only once.

System: HeLa cells
Assay: Toxicity to HeLa cells in culture, MTT (Example 23)
Type: cell-based, human
Conditions: 48 hours of culture
Protocol: The toxicity of Example 1 is compared to Chlorohexidine gluconate (a commonly used oral antiseptic) to human HeLa cells in culture is determined. HeLa cells are plated at subconfluency into a 96-well plate tissue culture plate, and after attachment, treated with the indicated final concentrations of Example 1 polymer or Chlorohexidine gluconate in triplicates. After 48 hours of culture, MTT reagent is added for two 2 hours to permit the development of viability-indicating color. 1 μM PAO (phenylarsine oxide) is used as a positive (effective killing) control. […] Furthermore, the minimum inhibitory concentration of Example 1 polymer is found to be about 10^−3% while that for the chlorohexidine gluconate is 6×10^−5%. This means that the Example 1 polymer is about […] less toxic to HeLa cells in culture than chlorohexidine gluconate.

SMILES: N=C(NCCCCCCNC(=N)NC(=N)Nc1ccc(Cl)cc1)NC(=N)Nc1ccc(Cl)cc1.O=C(O)[C@H](O)[C@@H](O)[C@H](O)[C@H](O)CO.O=C(O)[C@H](O)[C@@H](O)[C@H](O)[C@H](O)CO [chlorohexidine gluconate]
- Lethal dose 50 (LD50) for HeLa cells: ~0.0004% and > 1.2×10^−4%
